# Test results taken from paper PMC9490236, “Accurate de novo design of membrane-traversing macrocycles” (Cell, 2022).
# Where a SMILES comes first, the peptide text is derived from it. [ ]: non-standard residue; d: D form. ξ: configuration not given here. dNMeI = CC[C@@H](C)[C@@H](NC)C(=O)O; NMeF = CN[C@@H](Cc1ccccc1)C(=O)O; NMeI = CC[C@H](C)[C@H](NC)C(=O)O; dIle(3ξ) = CCC(C)[C@@H](N)C(=O)O; NMeL = CN[C@@H](CC(C)C)C(=O)O; dNMeL = CN[C@H](CC(C)C)C(=O)O; NMeA = CN[C@@H](C)C(=O)O; dNMeA = CN[C@H](C)C(=O)O
# Columns and labels:
# Caco-2 cells = experiment: Caco-2 permeability assay (apical to basolateral); format: in vitro ADME, human; conditions: Caco-2
# Description: (§1) Human colon adenocarcinoma-derived Caco-2 cell line was used as a model system to investigate the intestinal epithelial permeability of our designs. Caco-2 cells were propagated in T125 flasks (Corning, Merck) using Dulbecco’s modified Eagle medium supplemented with 10% (v/v) fetal bovine serum, 1% (v/v) nonessential amino acids, and 1% (v/v) penicillin-streptomycin (Gibco, Thermo Fisher Scientific) at 37°C in an atmosphere of 5% CO2. Cells were subcultured when they reached 80% confluence.
# (§2) The permeability of designed peptides was evaluated using an accelerated 6-day Caco-2 permeability assay as described previously ([Sevin et al., 2013]). In brief, cells were seeded into the 12-well Transwell plates with 0.4 μm polyester membrane inserts (Corning, Merck) to give 4.0 × 10^5 cells/well. The complete assay medium contained Dulbecco’s modified Eagle medium supplemented with 10% (v/v) fetal bovine serum, 1% (v/v) nonessential amino acids, and 0.4 μg/mL puromycin. The medium in plates was renewed every second day. The inserts received 0.75 mL of assay medium in the upper compartment (apical chamber) and 1.5 mL in the bottom compartment (basolateral chamber) individually. After 6-day incubation or until the cells formed monolayers, the medium in the apical and basolateral chamber was replaced with peptide solutions at 50 μM or Hanks' Balanced Salt Solution (HBSS), separately. The plates were incubated for 90 min at 37°C on an orbital shaker (60 rpm). The peptide concentration of solutions in the apical and basolateral compartments was subsequently quantified using LC-MS (Qstar Elite, AB Sciex Australia) to evaluate the transmembrane flux of peptides in the apical-to-basolateral direction. Membrane integrity of the Caco-2 cell monolayer was validated using trans-epithelial electrical resistance (TEER) measurements before and after the assays. Atenolol and quinidine were included as negative and positive controls in all assays.
# [1] = Caco-2 permeability assay (apical to basolateral); format: in vitro ADME, human; conditions: for Papp A→B: Caco-2, Caco_Papp_Average; for Papp at 90 min, 50 µM: human, Caco-2
# Description: as §1, §2
# in vitro = conditions: PAMPA, PAMPA_Papp_Avg
# [2] = PAMPA
Compound,Caco_R1 (Caco-2 cells),Caco_R3 (Caco-2 cells),Papp A→B [1] [×10⁻⁶ cm/s],Papp (in vitro) [×10⁻⁶ cm/s],PAMPA_R1 [2],PAMPA_R3 [2],"Papp at 90 min, 50 µM [1] [×10⁻⁶ cm/s]"
"CCC(C)[C@H]1NC(=O)[C@H](CC(C)C)NC(=O)[C@@H](C)N(C)C(=O)[C@@H]2CCCN2C(=O)[C@H](C)NC(=O)[C@@H](CC(C)C)NC(=O)[C@H]2CCCN2C(=O)[C@H](C(C)C)NC(=O)[C@@H](CC(C)C)N(C)C1=O (stereo partly drawn) [Design D9.30, DPRO DLEU ALA PRO *DALA LEU DILE *DLEU VAL] (cyclo(AP[dNMeA]L[dIle(3ξ)][dNMeL]V[dP][dL]))",1.9,2.72,2.32,1.6,1.58E-06,1.58E-06,
"CC[C@@H](C)[C@H]1NC(=O)[C@H](CC(C)C)N(C)C(=O)[C@H]2CCCN2C(=O)[C@H](CC(C)C)NC(=O)[C@H](Cc2ccccc2)N(C)C(=O)[C@H](CC(C)C)N(C)C(=O)[C@@H](C(C)C)NC(=O)[C@H](C)NC(=O)[C@H]2CCCN2C(=O)[C@@H]2CCCN2C1=O [Design D10.17.p2, *LEU *PHE LEU DPRO *LEU DILE PRO DPRO ALA DVAL]",12.57,7.84,8.7,2.69,3.37E-06,2.91E-06,
"CC[C@H](C)[C@H]1C(=O)N[C@H](C)C(=O)N[C@@H](CC(C)C)C(=O)N[C@@H](C(C)C)C(=O)N2CCC[C@@H]2C(=O)N(C)[C@@H](CC(C)C)C(=O)N[C@@H](C(C)C)C(=O)N2CCC[C@H]2C(=O)N(C)[C@H](CC(C)C)C(=O)N[C@@H](C(C)C)C(=O)N1C [Design D10.19, DALA LEU VAL DPRO *LEU VAL PRO *DLEU VAL *ILE] (cyclo(LV[dP][NMeL]VP[dNMeL]V[NMeI][dA]))",15.38,17.24,17.1,6.36,7.24E-06,7.38E-06,> 10
"CC[C@@H](C)[C@H]1NC(=O)[C@H](Cc2ccccc2)NC(=O)[C@@H](CC(C)C)N(C)C(=O)[C@@H]2CCCN2C(=O)[C@@H](C(C)C)NC(=O)[C@@H](C)N(C)C(=O)[C@H]2CCCN2C(=O)[C@@H](CC(C)C)NC(=O)[C@H](CC(C)C)NC(=O)[C@@H]2CCCN2C1=O [Design D10.30, PRO *DLEU PHE DILE PRO LEU DLEU DPRO *DALA DVAL] (cyclo(F[dI]PL[dL][dP][dNMeA][dV]P[dNMeL]))",15.3,15.5,16.1,4.78,5.23E-06,4.05E-06,> 10
"CC[C@H](C)[C@@H]1NC(=O)[C@@H](CC(C)C)NC(=O)[C@@H](C)N(C)C(=O)[C@H](Cc2ccccc2)NC(=O)[C@@H](CC(C)C)NC(=O)[C@@H](C)N(C)C(=O)[C@@H]2CCCN2C(=O)[C@H](C(C)C)NC(=O)[C@H]2CCCN2C(=O)[C@@H]2CCCN2C1=O [Design D10.31, PHE *DALA DLEU ILE PRO DPRO VAL PRO *DALA DLEU] (cyclo(F[dNMeA][dL]IP[dP]VP[dNMeA][dL]))",1.93,3.02,2.79,1.9,1.81E-06,2.20E-06,
"CC[C@@H](C)[C@H]1NC(=O)[C@@H](Cc2ccccc2)NC(=O)[C@@H](CC(C)C)NC(=O)[C@@H]2CCCN2C(=O)[C@H]2CCCN2C(=O)[C@H](CC(C)C)NC(=O)[C@H](CC(C)C)NC(=O)[C@@H](CC(C)C)N(C)C(=O)[C@H](C)N(C)C(=O)[C@H]2CCCN2C1=O [Design D10.34, DPHE DILE DPRO *ALA *DLEU LEU LEU DPRO PRO DLEU] (cyclo([dL][dF][dI][dP][NMeA][dNMeL]LL[dP]P))",14.68,14.14,15,4.51,4.77E-06,4.57E-06,> 10
"CC[C@H](C)[C@@H]1NC(=O)[C@@H](C(C)C)NC(=O)[C@@H](CC(C)C)N(C)C(=O)[C@H]2CCCN2C(=O)[C@@H](CC(C)C)NC(=O)[C@@H](CC(C)C)N(C)C(=O)[C@H](CC(C)C)NC(=O)[C@H]2CCCN2C(=O)[C@H](C)N(C)C(=O)[C@H]2CCCN2C1=O [Design D10.41, DPRO *DLEU DVAL ILE DPRO *ALA DPRO LEU *DLEU DLEU] (cyclo(I[dP][NMeA][dP]L[dNMeL][dL][dP][dNMeL][dV]))",4.42,10.34,7.66,5.69,5.92E-06,5.38E-06,
"CC[C@@H](C)[C@H]1NC(=O)[C@@H]2CCCN2C(=O)[C@@H]([C@H](C)CC)NC(=O)[C@@H](C)N(C)C(=O)[C@H](CC(C)C)NC(=O)[C@@H](Cc2ccccc2)NC(=O)[C@H](CC(C)C)N(C)C(=O)[C@H]2CCCN2C(=O)[C@@H](CC(C)C)NC(=O)[C@H](CC(C)C)NC(=O)[C@H]2CCCN2C1=O [Design D11.1, DILE DPRO LEU DLEU DPRO *LEU DPHE LEU *DALA DILE PRO] (cyclo(L[dL][dP][NMeL][dF]L[dNMeA][dI]P[dI][dP]))",2.39,3.24,2.77,3.48,3.55E-06,3.63E-06,
"CC[C@@H](C)[C@H]1NC(=O)[C@H]([C@@H](C)CC)NC(=O)[C@H](Cc2ccccc2)N(C)C(=O)[C@H]2CCCN2C(=O)[C@@H]([C@H](C)CC)NC(=O)[C@@H]([C@H](C)CC)N(C)C(=O)[C@H](CC(C)C)NC(=O)[C@H]2CCCN2C(=O)[C@@H]2CCCN2C(=O)[C@H](C(C)C)NC(=O)[C@H]2CCCN2C1=O [Design D11.4, VAL PRO DPRO LEU *DILE DILE DPRO *PHE ILE DILE DPRO] (cyclo(I[dI][dP]VP[dP]L[dNMeI][dI][dP][NMeF]))",3.83,6.55,4.99,1.47,1.64E-06,6.73E-07,
"CC[C@@H](C)[C@H]1NC(=O)[C@@H](CC(C)C)NC(=O)[C@H](C(C)C)NC(=O)[C@@H](CC(C)C)N(C)C(=O)[C@@H]2CCCN2C(=O)[C@H](C)NC(=O)[C@H](CC(C)C)N(C)C(=O)[C@H]2CCCN2C(=O)[C@H](C)N(C)C(=O)[C@@H](CC(C)C)N(C)C(=O)[C@@H]2CCCN2C1=O [Design D11.5, ALA PRO *DLEU VAL DLEU DILE PRO *DLEU *ALA DPRO *LEU] (cyclo(AP[dNMeL]V[dL][dI]P[dNMeL][NMeA][dP][NMeL]))",2.93,3.89,3.84,2.81,2.56E-06,3.12E-06,
"CC[C@@H](C)[C@H]1NC(=O)[C@H](C)N(C)C(=O)[C@H]([C@@H](C)CC)NC(=O)[C@H]2CCCN2C(=O)[C@H](CC(C)C)N(C)C(=O)[C@@H](C(C)C)NC(=O)[C@H](C)N(C)C(=O)[C@H]([C@@H](C)CC)NC(=O)[C@@H](CC(C)C)NC(=O)[C@@H]2CCCN2C(=O)[C@H]2CCCN2C1=O [Design D11.10, DPRO ILE *ALA DILE DPRO PRO DLEU ILE *ALA DVAL *LEU] (cyclo([dL]I[NMeA][dV][NMeL][dP]I[NMeA][dI][dP]P))",4.35,4.8,4.54,2.45,2.19E-06,3.23E-06,
"CC[C@H](C)[C@@H]1NC(=O)[C@@H](CC(C)C)N(C)C(=O)[C@H](CC(C)C)N(C)C(=O)[C@@H](Cc2ccccc2)NC(=O)[C@@H](CC(C)C)N(C)C(=O)[C@H]2CCCN2C(=O)[C@H]2CCCN2C(=O)[C@@H]2CCCN2C(=O)[C@@H](C(C)C)NC(=O)[C@@H]2CCCN2C(=O)[C@H](C)NC1=O [Design D11.11, PRO DPRO DPRO *DLEU DPHE *LEU *DLEU ILE ALA PRO DVAL] (cyclo(AP[dV]P[dP][dP][dNMeL][dF][NMeL][dNMeL]I))",2.88,5.78,4.92,2.26,1.97E-06,2.38E-06,
"CC[C@H](C)[C@@H]1NC(=O)[C@@H]2CCCN2C(=O)[C@H]2CCCN2C(=O)[C@@H](CC(C)C)NC(=O)[C@@H](CC(C)C)N(C)C(=O)[C@@H](C(C)C)NC(=O)[C@H](C(C)C)NC(=O)[C@H]2CCCN2C(=O)[C@@H]2CCCN2C(=O)[C@H]([C@@H](C)CC)NC(=O)[C@H](C)N(C)C1=O [Design D11.13, PRO DPRO VAL DVAL *DLEU DLEU DPRO PRO ILE *ALA ILE] (cyclo(I[NMeA]IP[dP]V[dV][dNMeL][dL][dP]P))",4.34,4.75,4.5,1.07,9.91E-07,1.30E-06,
